Experimental data from US20190054194A1, “System and Method For Evaluation of Subjects Using Magnetic Resonance Imaging and Oxygen-17” (Case Western Reserve University, priority 2017, published 2019).

Assay: dynamic golden-angle 17O-MRI of H2^17O uptake and washout in brain after intravenous bolus injection (control and glioblastoma mice)
Type: in vivo
From the text: In one configuration, tumor and brain may be differentiated with the present methods, such as to assess the presence of a glioblastoma. […] For example, the method may allow for differentiation between subjects with a moderate tumor volume (<30%, GBM-M) and those with a large tumor volume (>30%, GBM-L). Once image reconstruction has been completed, ^17O images may be coregistered with the T2-weighted ^1H images. Tumor areas may show higher signal intensity in T2-weighted ^1H images due to having a longer T2 than normal brain tissue. Appropriate regions of interest (ROIs) that encompass the tumor and normal brain tissue may be drawn manually from T2-weighted ^1H images, or automatic segmentation routines may be used to define the ROIs. Total tumor and brain volumes may be calculated by adding the tumor and brain areas in all of the image slices. The percentage of tumor volume may then be calculated as the tumor volume divided by total brain volume.
^17O signal may be normalized by the corresponding natural abundance ^17O signal acquired before H2^17O injection or administration. Peak H2^17O uptake may be identified as the maximal signal intensity following H2^17O administration. A normalized time course of the ^17O signal from peak uptake to the end of the measurement may be fit to a monoexponential function in a pixel-wise fashion to generate the maps of peak and steady-state H2^17O uptake, as well as its washout rate. Mean values for each ROI may be calculated for each map. In tissue with no obvious washout phase or even continued accumulation of H2^17O after the injection, washout rate may be set to zero, while peak and steady-state H2^17O uptake may be calculated as the normalized ^17O signals immediately after H2^17O injection and at the end of measurement, respectively.

[1] = GBM-L mice (large tumor volume >30%)

H2^17O uptake in normal brain tissue [1]: significantly reduced H2^17O uptake
H2^17O washout in normal brain tissue [1]: prolonged washout
H2^17O uptake in tumors (GBM-M mice (moderate tumor volume <30%)): reduced H2^17O uptake
H2^17O uptake and washout (17O signal kinetics) in brain (control mice, after H2^17O injection): rapid uptake and washout
Structure (SMILES): [17OH2] [H2^17O, ^17O-labeled water]
H2^17O washout in tumors [1]: no obvious washout phase, or even continuous accumulation of H2^17O after injection
